Measurements taken from paper PMC10496295, “In vitro cytotoxic effect of stigmasterol derivatives against breast cancer cells” (BMC Complementary Medicine and Therapies, 2023).
Like-named read-outs stand apart in the source and are kept apart here.

Legend:
[1] = test system: HCC70 triple negative breast cancer cell line; assay: resazurin cytotoxicity assay, HCC70 cells; format: cell-based; conditions: for SI (selectivity index), HCC70: EC50 against MCF12A cells ÷ EC50 against HCC70 cells; for EC50: Homo sapiens
[2] = test system: MCF-12 A non-tumorigenic breast epithelial cell line; assay: resazurin cytotoxicity assay, MCF-12 A cells; format: cell-based; conditions: Homo sapiens
[3] = test system: MCF-7 hormone receptor-positive breast cancer cell line; assay: resazurin cytotoxicity assay, MCF-7 cells; format: cell-based; conditions: for SI (selectivity index), MCF-7: EC50 against MCF12A cells ÷ EC50 against MCF-7 cells; for EC50: Homo sapiens
[4] = test system: human gastric cancer cell line SNU-1; conditions: read-out: IC50, SNU-1 proliferation; cited from earlier work
[5] = test system: human ovarian cancer cells OV90; set-up: method as in PMID 32481565; conditions: treatment concentration 20 µg/mL; cited from earlier work
[6] = test system: human breast cancer MCF-7 cell line; set-up: method as in PMID 33839518; conditions: read-out: IC50 against MCF-7 cell line; cited from earlier work
[7] = test system: human ovarian cancer cells ES2; set-up: method as in PMID 32481565; conditions: treatment concentration 20 µg/mL; cited from earlier work
[8] = test system: oxidative burst of the whole blood; set-up: method as in PMID 23136063; conditions: cited from earlier work
[9] = test system: U937 human monocytic cell line; set-up: method as in PMID 20828195; conditions: cited from earlier work; for reduction in cell viability / level of cell death compared to the untreated control: p < 0.05; for level of cell death compared to the untreated control: FDA/EtBr staining
[10] = HCC70, 96 h, read-out: EC50 and Standard deviation, HCC70, HCC70 cells, 96 h treatment, resazurin assay
[11] = MCF-12A, 96 h, read-out: EC50 and Standard deviation, MCF-12 A, MCF-12 A cells, 96 h treatment, resazurin assay
[12] = MCF7, 96 h, read-out: EC50 and Standard deviation, MCF-7, MCF-7 cells, 96 h treatment, resazurin assay
[13] = HCC70 cells, 96 h treatment, resazurin assay, read-out: EC50 and Standard deviation, HCC70
[14] = MCF-12 A cells, 96 h treatment, resazurin assay, read-out: EC50 and Standard deviation, MCF-12 A
[15] = MCF7, MCF-7 cells, 96 h treatment, resazurin assay, read-out: EC50 and Standard deviation, MCF-7

Compound | SI (selectivity index), HCC70 [1] | SI (selectivity index), MCF-7 [3] | melting point [°C] | EC50 [1, 13] [nM] | EC50 [2, 14] [nM] | EC50 [3, 15] [nM] | also measured
CC[C@@]1(O)C(=O)OCc2c1cc1n(c2=O)Cc2cc3ccccc3nc2-1 [Camptothecin, reference compound] | 1.25 | 1.00 |  |  |  |  | EC50 ([1]; HCC70 cells, 96 h, resazurin assay, positive control, row unit nM, read-out: EC50 and Standard deviation, HCC70): 83.2 ± 1.08 nM; EC50 ([2]; MCF-12 A cells, 96 h, resazurin assay, positive control, row unit nM, read-out: EC50 and Standard deviation, MCF-12 A): 104.2 ± 1.03 nM; EC50 ([3]; MCF7, MCF-7 cells, 96 h, resazurin assay, positive control, row unit nM, read-out: EC50 and Standard deviation, MCF-7): 104 ± 9.92 nM
CC[C@H](C=C[C@@H](C)[C@H]1CC[C@H]2[C@@H]3CC=C4C[C@@H](O)CC[C@]4(C)[C@H]3CC[C@]12C)C(C)C [Compound 1, stigmasta-5,22-dien-3β-ol] |  |  |  |  |  |  | EC50 [1, 10]: > 250000 nM; IC50 [4]: 15 µM; reduction of growth of OV90 cells [5]: 50%; IC50 [6]: 0.162 µM; EC50 [2, 11]: > 250000 nM; reduction of growth of ES2 cells [7]: 50%; EC50 [3, 12]: > 250000 nM
CC[C@H](/C=C/[C@@H](C)C1CCC2C3CC=C4C[C@@H](OC(C)=O)CC[C@]4(C)C3CC[C@@]21C)C(C)C (stereo partly drawn) [Compound 2, Stigmasterol acetate] |  |  | 139 to 141 |  |  |  | EC50 [1, 10]: > 250000 nM; EC50 [2, 11]: > 250000 nM; EC50 [3, 12]: > 250000 nM
CC[C@H](C=C[C@@H](C)[C@H]1CC[C@H]2[C@@H]3C(=O)C=C4CC(=O)CC[C@]4(C)[C@H]3CC[C@]12C)C(C)C [Compound 3, Stigmasta-5,22-dien-3,7-dione] | 0.45 | 0.70 | 152 to 155 | 67700 ± 1260 | 30200 ± 1240 | 42800 ± 1320 | IC50 [8]: 15.6 ± 2.1 µM
CC[C@H](C=C[C@@H](C)[C@H]1CC[C@H]2[C@@H]3CC4OC45C[C@@H](O)CC[C@]5(C)[C@H]3CC[C@]12C)C(C)C (stereo partly drawn) [Compound 4, 5,6-Epoxystigmast-22-en-3β-ol] | 0.28 |  | 142 to 145 | 165700 ± 1300 | 47000 ± 1180 | 21900 ± 1320 | 
CC[C@@H](C(C)C)C(O)C(O)[C@@H](C)C1CCC2C3CC4OC45C[C@@H](O)CC[C@]5(C)C3CC[C@@]21C (stereo partly drawn) [Compound 5, 5,6-Epoxystigmasta-3β,22,23-triol] | 0.90 | 0.69 |  | 33700 ± 1330 | 30200 ± 1280 | 44000 ± 1400 | reduction in cell viability ([9]; U937 cells, 60 and 120 µM): significantly reduced cell viability; level of cell death compared to the untreated control ([9]; U937 cells): significant; mode of cell death ([9]; U937 cells, staining with Hoechst 33,342): apoptosis
CC[C@@H](C(C)C)C(O)C(O)[C@@H](C)[C@H]1CC[C@H]2[C@@H]3CC(O)C4(O)C[C@@H](O)CC[C@]4(C)[C@H]3CC[C@]12C (stereo partly drawn) [Compound 6, Stigmastane-3β,5,6,22,23-pentol] |  | 0.51 | 201 to 204 | 16800 ± 1170 | 22600 ± 1220 | 44100 ± 1400 | 
CC[C@@H](C(C)C)C(O)C(O)[C@@H](C)[C@H]1CC[C@H]2[C@@H]3C(=O)C=C4CC(=O)CC[C@]4(C)[C@H]3CC[C@]12C (stereo partly drawn) [Compound 7, Stigmasta-5-en-3,7-dion-22,23-diol] | 0.19 | 1.36 | 137 to 140 | 170100 ± 1180 | 31600 ± 1120 | 23200 ± 1080 | 
CC[C@@H](C(C)C)C(O)C(O)[C@@H](C)C1CCC2C3C(=O)C(O)C4(O)CC(=O)CC[C@]4(C)C3CC[C@@]21C (stereo partly drawn) [Compound 8, Stigmasta-3,7-dion-5,6,22,23-ol] |  |  | 183 to 187 | 53200 ± 1060 | > 250000 | > 250000 | 
CC[C@@H](C(C)C)C(O)C(O)[C@@H](C)[C@H]1CC[C@H]2[C@@H]3CC=C4C[C@@H](O)CC[C@]4(C)[C@H]3CC[C@]12C (stereo partly drawn) [Compound 9, Stigmast-5-ene-3β,22,23-triol] | 1.16 |  |  | 44500 ± 1130 | 51800 ± 1130 | 22900 ± 1090 | reduction in cell viability ([9]; U937 cells, 30, 60 and 120 µM): significant reduction; level of cell death compared to the untreated control ([9]; U937 cells): significant; cell viability ([9]; U937 cells, highest concentration 120 µM): 52.3%
N.N.[Cl][Pt][Cl] [cisplatin, reference compound] |  |  |  |  |  |  | IC50 [6]: 13.2 µM
CC(C)Cc1ccc(C(C)C(=O)O)cc1 (stereo not drawn) [ibuprofen, reference compound] |  |  |  |  |  |  | IC50 [8]: 12.1 µM
